# Experiments:
# [1] = In vitro stability in liver microsomes, mouse; type: in vitro ADME; conditions: 1 μM
# Procedure: (§1) 300 μL of the final incubation system contains 30 μL of liver microsomes (protein concentration: 5 mg/mL), 30 μL of NADPH+MgCl2, 3 μL of the test compound (in acetonitrile), and 237 μL of PBS buffer (pH 7.4). Among them, the proportion of the organic solvent (acetonitrile) was 1% (volume ratio). Samples were prepared in duplicate for each species (mouse, rat and human), with 0.3 mL each. […] 50 μL of the mixture was taken at 0 min, 15 min, 30 min and 60 min, and 300 μL of glacial acetonitrile containing an internal standard was added to terminate the reaction. 50 μL of the incubated sample was added with 300 μL of glacial acetonitrile containing an internal standard (20 ng/mL diazepam) for precipitation. The mixture was vortexed for 5 min, and centrifuged (13,000 rpm, 20° C.) for 10 min 70 μL of supernatant was taken and 70 μL of ultrapure water was added for dilution and homogeneous mixing. 1 μL of sample was injected for analysis.
# [2] = In vitro stability in liver microsomes, rat; type: in vitro ADME; conditions: 1 μM
# Procedure: as §1
# [3] = In vitro stability in liver microsomes, human; type: in vitro ADME; conditions: 1 μM
# Procedure: as §1
# [4] = system: human B-cell leukemia RS4;11 subcutaneous xenograft; experiment: Pharmacodynamics in human B-cell leukemia RS4;11 subcutaneous xenograft model; type: in vivo, NOD/SCID mice; conditions: 25 mg/kg p.o. single dose, Day 17 after end of treatment
# Excerpt: NOD/SCID mice, female, aged 9-10 weeks (ages upon tumor cell grafting), body weight of 16.3-22.0 g. The mice were purchased from Beijing AniKeeper Biotech Co., Ltd. (production license number: SCXK (Jing) 2017-0006; animal certification number: 11402400013155). Breeding environment: SPF grade. Mice were grafted subcutaneously on the right anterior dorsal side with 1×10^7 RS4;11 cells. The day of grafting was defined as day 0. When the mean tumor volume was 240 mm^3, the mice were randomized by the tumor size. The administration was performed as per Table 16 below.
# Clinical symptoms observed during the study were recorded in the raw data. Calculation formula for tumor volume: Tumor volume (mm^3)=½×(a×b^2) (where a represents long diameter and b represents short diameter). The data were collected using StudyDirector™ software (version No. 3.1.399.19, supplier: Studylog System, Inc., S.San Francisco, CA, USA) in the study, including measurements of the long and short diameters of the tumor and body weights of the animals. The raw data obtained from a balance and a vernier caliper were directly input into the software, and any change in the data was recorded. Relative tumor proliferation rate (T/C %) refers to the percentage of the relative tumor volume or tumor weight of the treatment and control groups at a certain time point. The calculation formula is as follows: T/C %=TRTV/CRTV×100%(TRTV:mean RTV for treatment group;CRTV:mean RTV for vehicle control group;RTV=Vt/V0, where V0 denotes the tumor volume of the animal upon grouping, and Vt denotes the tumor volume of the animal after treatment).
# (T and C are the relative tumor volume (RTV) or tumor weight (TW) at a particular time point for the treatment and control groups, respectively).
# All experimental results were expressed as mean tumor volume±SEM (standard error of mean). The relative tumor volume of the treatment group was compared with that of the control group for any significant difference by the independent sample T test. All the data were analyzed using SPSS 18.0. p<0.05 was defined as a significant difference.
# [5] = system: human platelet caspase-3 activity; experiment: Human platelet toxicity study (caspase-3 activity assay); type: cell-based; conditions: human platelets, compound concentration 1 μM, 90 min; normalized, reference ABT-199
# Procedure: 10 mL of human whole blood was collected using a heparin sodium anticoagulation tube, mixed well by turning upside down, and centrifuged at 90 g for 10 min. The supernatant was collected and centrifuged at 1950 g for 10 min. The supernatant was discarded, and the residue was resuspended in 4 mL of PBS, and centrifuged at 1190 g for 5 min. The procedure was repeated once. The supernatant was discarded, and the platelets were resuspended in PBS and adjusted to a density of 2-3×10^8 cells/mL. Cells were seeded into a 96-well plate at a density of […] and at 100 μL/well. 50 μL of control buffer was added to each negative control well, and 50 μL of compound at a corresponding concentration was added to each compound well to adjust the final concentration of the compound to 2.5 μM or 1 μM, followed by incubation in an incubator at 37° C. for 90 min. The liquids in the 96-well plate were transferred to 1.5 mL centrifuge tubes. […] The resulting mixture was mixed gently, and the plate was read by a PE Envision multi-functional microplate reader (excitation: 360 nm, emission: 460 nm) once every 10 min for 6 times. Caspase-3 activity was determined based on the intensity of the released AMC fluorescence, that is the slope of the fitted line to which each well corresponds represents Caspase activity (all data were normalized and the reference was ABT-199).
smiles,measurement,setting,value
CC1(C)CCC(CN2CCN(c3ccc(C(=O)NS(=O)(=O)c4ccc(NC[C@H]5COCCO5)c([N+](=O)[O-])c4)c(Oc4cnc5[nH]ccc5c4)c3)CC2)=C(c2ccc(C(F)(F)F)cc2Cl)C1 [Compound of formula I],Mouse Residuals at 60 min,[1],73.9%
same,Rat Residuals at 60 min,[2],90.9%
same,Human Residuals at 60 min,[3],86.3%
same,T/C,[4],29.8%
same,TGI,[4],70.2%
same,Tumor volume (x ± S),[4],600.39 ± 32.88 mm^3
same,Slope (caspase-3 activity),[5],0.59

# — patent US12545674B2, “Crystal of trifluoromethyl/chloro disubstituted sulfonamide selective BCL-2 inhibitor” (priority 2020, dated 2026)
